According to patent US8946266B2, “Substituted triazole and imidazole derivatives as gamma secretase modulators” (Janssen Pharmaceuticals, Inc., priority 2009, dated 2015):

Tests used:
Aβtotal [1] = test: γ-secretase-modulating activity, Method 2: Aβtotal Alphalisa in supernatant of SKNBE2 cells carrying APP 695-wild type (Table 3b); assay type: cell-based; conditions: overnight, read-out: IC50 Aβtot
Procedure, shortened: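 SKNBE2 cells expressing wild-type APP 695 were incubated overnight at 37 °C, 5% CO2 with test compound at a range of concentrations. Aβtotal in supernatant was measured by AlphaLISA sandwich (N-terminal JRF/AβN/25 acceptor, biotinylated mid-region 4G8 donor); IC50 from 4-parameter fit of percent control versus log concentration.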

Aβ42 [2] = test: In vivo efficacy, Method 2: brain soluble Aβ42 lowering 4 h after a single oral dose, ELISA (Table 4b); set-up: species or system mouse; conditions: dose 30 mg/kg oral dosing
Excerpt: (§1) To determine whether acute administration of an Aβ42 lowering agent would reduce Aβ42 levels in vivo, non-transgenic rodents, e.g. mice or rats were used. Animals treated with the Aβ42 lowering agent were examined and compared to those untreated or treated with vehicle and brain levels of soluble Aβ42 and total Aβ were quantitated by standard techniques, for example, using ELISA. Treatment periods varied from hours (h) to days and were adjusted based on the results of the Aβ42 lowering once a time course of onset of effect could be established.
(§2) A typical protocol for measuring Aβ42 lowering in vivo is shown but it is only one of many variations that could be used to optimize the levels of detectable Aβ. For example, Aβ42 lowering compounds were formulated in 20% of Captisol® (a sulfobutyl ether of β-cyclodextrin) in water or 20% hydroxypropyl β cyclodextrin. The Aβ42 lowering agents were administered as a single oral dose or by any acceptable route of administration to overnight fasted animals. After 4 h, the animals were sacrificed and Aβ42 levels were analysed.
(§3) Blood was collected by decapitation and exsanguinations in EDTA-treated collection tubes. Blood was centrifuged at 1900 g for 10 minutes (min) at 4° C. and the plasma recovered and flash frozen for later analysis. The brain was removed from the cranium and hindbrain. The cerebellum was removed and the left and right hemisphere were separated. The left hemisphere was stored at −18° C. for quantitative analysis of test compound levels. The right hemisphere was rinsed with phosphate-buffered saline (PBS) buffer and immediately frozen on dry ice and stored at −80° C. until homogenization for biochemical assays.
(§4) Mouse brains from non-transgenic animals were resuspended in 8 volumes of 0.4% DEA (diethylamine)/50 mM NaCl containing protease inhibitors (Roche-11873580001 or 04693159001) per gram of tissue, e.g. for 0.158 g brain, add 1.264 ml of 0.4% DEA. All samples were homogenized in the FastPrep-24 system (MP Biomedicals) using lysing matrix D (MPBio #6913-100) at 6 m/s for 20 seconds. Homogenates were centrifuged at 221.300×g for 50 min. The resulting high speed supernatants were then transferred to fresh eppendorf tubes. Nine parts of supernatant were neutralized with 1 part 0.5 M Tris-HCl pH 6.8 and used to quantify Aβtotal and Aβ42.
(§5) To quantify the amount of Aβtotal and Aβ42 in the soluble fraction of the brain homogenates, Enzyme-Linked-Immunosorbent-Assays were used. Briefly, the standards (a dilution of synthetic Aβ1-40 and Aβ1-42, Bachem) were prepared in 1.5 ml Eppendorf tube in Ultraculture, with final concentrations ranging from 10000 to 0.3 pg/ml. The samples and standards were co-incubated with HRPO-labelled N-terminal antibody for Aβ42 detection and with the biotinylated mid-domain antibody 4G8 for Aβtotal detection. 50 μl of conjugate/sample or conjugate/standards mixtures were then added to the antibody-coated plate (the capture antibodies selectively recognize the C-terminal end of Aβ42, antibody JRF/cAβ42/26, for Aβ42 detection and the N-terminus of Aβ, antibody JRF/rAβ/2, for Aβtotal detection). The plate was allowed to incubate overnight at 4° C. in order to allow formation of the antibody-amyloid complex. Following this incubation and subsequent wash steps the ELISA for Aβ42 quantification was finished by addition of Quanta Blu fluorogenic peroxidase substrate according to the manufacturer's instructions (Pierce Corp., Rockford, Ill.). A reading was performed after 10 to 15 min (excitation 320/emission 420).
In this model at least 20% Aβ42 lowering compared to untreated animals would be advantageous.
(§6) The results are shown in Table 4b (dose 30 mg/kg oral dosing): […]

Aβtotal [3] = test: In vivo efficacy, Method 2: brain soluble Aβtotal lowering 4 h after a single oral dose, ELISA (Table 4b); set-up: species or system mouse; conditions: dose 30 mg/kg oral dosing
Excerpt: as §1, §2, §3, §4, §5
For Aβtotal detection, a Streptavidine-Peroxidase-Conjugate was added, followed 60 min later by an additional wash step and addition of Quanta Blu fluorogenic peroxidase substrate according to the manufacturer's instructions (Pierce Corp., Rockford, Ill.). A reading was performed after 10 to 15 min (excitation 320 nm/emission 420 nm).
as §6

Aβ42 [4] = test: γ-secretase-modulating activity, Method 2: Aβ42 Alphalisa in supernatant of SKNBE2 cells carrying APP 695-wild type (Table 3b); assay type: cell-based; conditions: overnight
Procedure, shortened: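 SKNBE2 cells expressing wild-type APP695 were incubated overnight at 37° C. with test compound. Secreted Aβ42 was then measured by AlphaLISA, using a C-terminal Aβ42 antibody paired with an N-terminal Aβ antibody. IC50 came from a 4-parameter fit of percent of compound-free control.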

SMILES | IC50 (Aβtotal [1]) [nM] | Aβ42 (% Ctrl) _Mean (Aβ42 [2]) [% Ctrl] | Aβtotal (% Ctrl) _Mean (Aβtotal [3]) [% Ctrl] | IC50 (Aβ42 [4]) [nM]
COc1cc(-c2nc(Nc3cc(C(F)(F)F)cc(C(F)(F)F)c3)n(C)n2)ccc1-n1cnc(C)c1 [Compound 150] | > 10000 | −6 | −8 | 13
COc1cc(-c2nc(Nc3ccc(F)c(C(F)(F)F)c3)n(C)n2)ccc1-n1cnc(C)c1 [Compound 152] | > 10000 | 10 | −9 | 19
COc1nc(-c2nc(Nc3cccc(C(F)(F)F)c3)n(C)n2)ccc1-n1cnc(C)c1 [Compound 153] | > 10000 | 14 | −6 | 8
COc1nc(-c2nc(Nc3ccc(F)cc3C(F)(F)F)n(C)n2)ccc1-n1cnc(C)c1 [Compound 158] | > 10000 | 44 | 3 | 40
COc1cc(-c2nc(Nc3cccc(C)c3F)n(C)n2)ccc1-n1cnc(C)c1 [Compound 161] | > 10000 | 45 | 8 | 78
COc1cc(-c2nc(Nc3cc(C(F)(F)F)ccc3F)n(C)n2)ccc1-n1cnc(C)c1 [Compound 162] | 3630 | 35 | 2 | 11
COc1nc(-c2nc(Nc3cccc(C(F)(F)F)c3F)n(C)n2)ccc1-n1cnc(C)c1 [Compound 167] | > 15000 | 52 | −1 | 38
COc1cc(-c2nc(Nc3cccc(Cl)c3C(F)(F)F)n(C)n2)ccc1-n1cnc(C)c1 [Compound 169] | > 10000 | 57 | 9 | 41
COc1cc(-c2nc(Nc3cc(C(F)(F)F)ccc3Cl)n(C)n2)ccc1-n1cnc(C)c1 [Compound 177] | > 10000 | 51 | 11 | 10
COc1cc(-c2nc(Nc3cc(N(C)C)ccc3F)n(C)n2)ccc1-n1cnc(C)c1 [Compound 180] | > 10000 | 51 | 10 | 22
COc1cc(-c2nc(Nc3cccc(OC(F)(F)F)c3)n(C)n2)ccc1-n1cnc(C)c1 [Compound 181] | 5750 | 28 | 9 | 25
COc1cc(-c2nc(Nc3ccccc3OC(F)(F)F)n(C)n2)ccc1-n1cnc(C)c1.Cl.Cl [Compound 182] | 8510 | 55 | 14 | 35
COc1nc(-c2nc(Nc3cc(OC(F)(F)F)ccc3F)n(C)n2)ccc1-n1cnc(C)c1 [Compound 184] | > 15000 | 69 | 15 | 13
COc1cc(-c2nc(Nc3cc(OC(F)(F)F)ccc3F)n(C)n2)ccc1-n1cnc(C)c1 [Compound 185] | > 10000 | 40 | 9 | 17
COc1cc(-c2nc(Nc3cc(C)ccc3C)n(C)n2)ccc1-n1cnc(C)c1 [Compound 198] | > 10000 | 55 | 6 | 13
